According to PubChem BioAssay (NCI):
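96-well plates; 48 h exposure; 5 concentrations. Endpoints by linear interpolation between flanking doses. Not reached: highest tested concentration assigned. TGI denotes the concentration required for complete inhibition of growth.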

Legend:
Experiment in all cases: NCI-60 cell line screen, 48 h
HT29 colon = test system: HT29 colon
OVCAR-8 ovarian = test system: OVCAR-8 ovarian
MCF7 breast = test system: MCF7 breast
CAKI-1 renal = test system: CAKI-1 renal
ACHN renal = test system: ACHN renal
SNB-19 CNS = test system: SNB-19 CNS
IGROV1 ovarian = test system: IGROV1 ovarian
TK-10 renal = test system: TK-10 renal
M14 melanoma = test system: M14 melanoma
EKVX NSCLC = test system: EKVX NSCLC
SK-MEL-5 melanoma = test system: SK-MEL-5 melanoma
T-47D breast = test system: T-47D breast
MDA-MB-231 breast = test system: MDA-MB-231 breast
HCT-15 colon = test system: HCT-15 colon
MALME-3M melanoma = test system: MALME-3M melanoma
HOP-92 NSCLC = test system: HOP-92 NSCLC
SN12C renal = test system: SN12C renal
SF-268 CNS = test system: SF-268 CNS
HS 578T breast = test system: HS 578T breast
CCRF-CEM leukemia = test system: CCRF-CEM leukemia
LOX IMVI melanoma = test system: LOX IMVI melanoma
RPMI-8226 leukemia = test system: RPMI-8226 leukemia
UACC-62 melanoma = test system: UACC-62 melanoma
NCI-H23 lung = test system: NCI-H23 lung
KM12 colon = test system: KM12 colon
A549 NSCLC = test system: A549 NSCLC
RXF 393 renal = test system: RXF 393 renal
SW-620 colon = test system: SW-620 colon
DU-145 prostate = test system: DU-145 prostate
SF-539 CNS = test system: SF-539 CNS
NCI-H226 lung = test system: NCI-H226 lung
PC-3 prostate = test system: PC-3 prostate
SR leukemia = test system: SR leukemia
OVCAR-4 ovarian = test system: OVCAR-4 ovarian
SK-MEL-28 melanoma = test system: SK-MEL-28 melanoma
HOP-62 NSCLC = test system: HOP-62 NSCLC
SNB-75 CNS = test system: SNB-75 CNS
786-0 renal = test system: 786-0 renal
COLO 205 colon = test system: COLO 205 colon
SF-295 CNS = test system: SF-295 CNS
NCI-H522 lung = test system: NCI-H522 lung
UACC-257 melanoma = test system: UACC-257 melanoma
OVCAR-5 ovarian = test system: OVCAR-5 ovarian
SK-MEL-2 melanoma = test system: SK-MEL-2 melanoma
K-562 leukemia = test system: K-562 leukemia
MDA-N = test system: MDA-N
U251 CNS = test system: U251 CNS
HCC-2998 colon = test system: HCC-2998 colon
MDA-MB-435 = test system: MDA-MB-435
OVCAR-3 ovarian = test system: OVCAR-3 ovarian
SK-OV-3 ovarian = test system: SK-OV-3 ovarian
NCI-H460 lung = test system: NCI-H460 lung
BT-549 breast = test system: BT-549 breast
A498 renal = test system: A498 renal
HL-60(TB) leukemia = test system: HL-60(TB) leukemia
HCT-116 colon = test system: HCT-116 colon
UO-31 renal = test system: UO-31 renal
MOLT-4 leukemia = test system: MOLT-4 leukemia
NCI/ADR-RES ovarian = test system: NCI/ADR-RES ovarian

CC(C)=CCC[C@](C)(O[C@@H]1O[C@H](CO)[C@@H](O)[C@H](O)[C@H]1O)[C@H]1CC[C@]2(C)[C@@H]1[C@H](O)C[C@@H]1[C@@]3(C)CC[C@H](O)C(C)(C)[C@@H]3[C@@H](O[C@@H]3O[C@H](CO)[C@@H](O)[C@H](O)[C@H]3O)C[C@]12C
TGI (HT29 colon): > 100 µM | TGI (OVCAR-8 ovarian): > 100 µM | TGI (MCF7 breast): > 100 µM | TGI (CAKI-1 renal): > 100 µM | TGI (ACHN renal): > 100 µM | TGI (SNB-19 CNS): > 100 µM | TGI (IGROV1 ovarian): > 100 µM | TGI (TK-10 renal): > 100 µM | TGI (M14 melanoma): > 100 µM | TGI (EKVX NSCLC): > 100 µM | TGI (SK-MEL-5 melanoma): > 100 µM | TGI (T-47D breast): > 100 µM | TGI (MDA-MB-231 breast): > 100 µM | TGI (HCT-15 colon): > 100 µM | TGI (MALME-3M melanoma): > 100 µM | TGI (HOP-92 NSCLC): > 100 µM | TGI (SN12C renal): > 100 µM | TGI (SF-268 CNS): > 100 µM | TGI (HS 578T breast): > 100 µM | TGI (CCRF-CEM leukemia): > 100 µM | TGI (LOX IMVI melanoma): > 100 µM | TGI (RPMI-8226 leukemia): > 100 µM | TGI (UACC-62 melanoma): > 100 µM | TGI (NCI-H23 lung): > 100 µM | TGI (KM12 colon): > 100 µM | TGI (A549 NSCLC): > 100 µM | TGI (RXF 393 renal): > 100 µM | TGI (SW-620 colon): > 100 µM | TGI (DU-145 prostate): > 100 µM | TGI (SF-539 CNS): > 100 µM | TGI (NCI-H226 lung): > 100 µM | TGI (PC-3 prostate): > 100 µM | TGI (SR leukemia): > 100 µM | TGI (OVCAR-4 ovarian): > 100 µM | TGI (SK-MEL-28 melanoma): > 100 µM | TGI (HOP-62 NSCLC): > 100 µM | TGI (SNB-75 CNS): > 100 µM | TGI (786-0 renal): > 100 µM | TGI (COLO 205 colon): > 100 µM | TGI (SF-295 CNS): > 100 µM | TGI (NCI-H522 lung): > 100 µM | TGI (UACC-257 melanoma): > 100 µM | TGI (OVCAR-5 ovarian): > 100 µM | TGI (SK-MEL-2 melanoma): > 100 µM | TGI (K-562 leukemia): > 100 µM | TGI (MDA-N): > 100 µM | TGI (U251 CNS): > 100 µM | TGI (HCC-2998 colon): > 100 µM | TGI (MDA-MB-435): > 100 µM | TGI (OVCAR-3 ovarian): > 100 µM | TGI (SK-OV-3 ovarian): > 100 µM | TGI (NCI-H460 lung): > 100 µM | TGI (BT-549 breast): > 100 µM | TGI (A498 renal): > 100 µM | TGI (HL-60(TB) leukemia): > 100 µM | TGI (HCT-116 colon): > 100 µM | TGI (UO-31 renal): > 100 µM

Cc1cc2c(cc1C)C(=O)C1(C2)Cc2c(ccc(C)c2C)C1=O (configuration not stated)
TGI (OVCAR-8 ovarian): > 100 µM | TGI (MCF7 breast): > 100 µM | TGI (CAKI-1 renal): > 100 µM | TGI (ACHN renal): > 100 µM | TGI (SNB-19 CNS): > 100 µM | TGI (IGROV1 ovarian): > 100 µM | TGI (TK-10 renal): > 100 µM | TGI (M14 melanoma): > 100 µM | TGI (MOLT-4 leukemia): > 100 µM | TGI (EKVX NSCLC): > 100 µM | TGI (SK-MEL-5 melanoma): > 100 µM | TGI (T-47D breast): > 100 µM | TGI (MDA-MB-231 breast): > 100 µM | TGI (HCT-15 colon): > 100 µM | TGI (MALME-3M melanoma): > 100 µM | TGI (HOP-92 NSCLC): > 100 µM | TGI (SN12C renal): > 100 µM | TGI (SF-268 CNS): > 100 µM | TGI (HS 578T breast): > 100 µM | TGI (CCRF-CEM leukemia): > 100 µM | TGI (LOX IMVI melanoma): > 100 µM | TGI (RPMI-8226 leukemia): > 100 µM | TGI (UACC-62 melanoma): > 100 µM | TGI (KM12 colon): > 100 µM | TGI (A549 NSCLC): > 100 µM | TGI (RXF 393 renal): > 100 µM | TGI (SW-620 colon): > 100 µM | TGI (DU-145 prostate): > 100 µM | TGI (SF-539 CNS): > 100 µM | TGI (NCI-H226 lung): > 100 µM | TGI (PC-3 prostate): > 100 µM | TGI (SR leukemia): > 100 µM | TGI (OVCAR-4 ovarian): > 100 µM | TGI (SK-MEL-28 melanoma): > 100 µM | TGI (SNB-75 CNS): > 100 µM | TGI (786-0 renal): > 100 µM | TGI (COLO 205 colon): > 100 µM | TGI (SF-295 CNS): > 100 µM | TGI (NCI-H522 lung): > 100 µM | TGI (UACC-257 melanoma): > 100 µM | TGI (OVCAR-5 ovarian): > 100 µM | TGI (SK-MEL-2 melanoma): > 100 µM | TGI (K-562 leukemia): > 100 µM | TGI (MDA-N): > 100 µM | TGI (U251 CNS): > 100 µM | TGI (HCC-2998 colon): > 100 µM | TGI (MDA-MB-435): > 100 µM | TGI (OVCAR-3 ovarian): > 100 µM | TGI (NCI-H460 lung): > 100 µM | TGI (BT-549 breast): > 100 µM | TGI (HL-60(TB) leukemia): > 100 µM | TGI (HCT-116 colon): > 100 µM | TGI (NCI/ADR-RES ovarian): > 100 µM | TGI (UO-31 renal): > 100 µM

CN1C(=O)c2c(c3c4ccccc4n(C4OC(CO)C(O)C(O)C4O)c3c3[nH]c4ccccc4c23)C1=O (configuration not stated)
TGI (HT29 colon): 9.52 µM | TGI (OVCAR-8 ovarian): 4.19 µM | TGI (MCF7 breast): 18.7 µM | TGI (CAKI-1 renal): 5.3 µM | TGI (ACHN renal): 6.45 µM | TGI (SNB-19 CNS): 8.42 µM | TGI (IGROV1 ovarian): 4.1 µM | TGI (TK-10 renal): 13.7 µM | TGI (M14 melanoma): 6.13 µM | TGI (MOLT-4 leukemia): 3.57 µM | TGI (EKVX NSCLC): 9.09 µM | TGI (SK-MEL-5 melanoma): 3.29 µM | TGI (MDA-MB-231 breast): 5.33 µM | TGI (HCT-15 colon): 17.4 µM | TGI (MALME-3M melanoma): 1.44 µM | TGI (HOP-92 NSCLC): 5.86 µM | TGI (SN12C renal): 9.71 µM | TGI (SF-268 CNS): 4.85 µM | TGI (HS 578T breast): 21.6 µM | TGI (CCRF-CEM leukemia): 1.68 µM | TGI (LOX IMVI melanoma): 5.49 µM | TGI (RPMI-8226 leukemia): 59.8 µM | TGI (UACC-62 melanoma): 4.09 µM | TGI (NCI-H23 lung): 9.6 µM | TGI (KM12 colon): 11.3 µM | TGI (A549 NSCLC): 29.6 µM | TGI (RXF 393 renal): 8.96 µM | TGI (SW-620 colon): 16.2 µM | TGI (DU-145 prostate): 9.66 µM | TGI (SF-539 CNS): 4.7 µM | TGI (PC-3 prostate): 9.62 µM | TGI (SR leukemia): 1.2 µM | TGI (OVCAR-4 ovarian): 6.36 µM | TGI (SK-MEL-28 melanoma): 8.43 µM | TGI (HOP-62 NSCLC): 9.51 µM | TGI (SNB-75 CNS): 15.9 µM | TGI (786-0 renal): 7.31 µM | TGI (COLO 205 colon): 6.79 µM | TGI (SF-295 CNS): 10.9 µM | TGI (NCI-H522 lung): 1.66 µM | TGI (UACC-257 melanoma): 7.36 µM | TGI (OVCAR-5 ovarian): 6.67 µM | TGI (SK-MEL-2 melanoma): 4.72 µM | TGI (K-562 leukemia): > 100 µM | TGI (MDA-N): 7.24 µM | TGI (U251 CNS): 10.8 µM | TGI (HCC-2998 colon): 7.72 µM | TGI (MDA-MB-435): 6.95 µM | TGI (OVCAR-3 ovarian): 5.37 µM | TGI (SK-OV-3 ovarian): 10.9 µM | TGI (NCI-H460 lung): 12.1 µM | TGI (BT-549 breast): 33.8 µM | TGI (A498 renal): 3.26 µM | TGI (HCT-116 colon): 2.88 µM | TGI (NCI/ADR-RES ovarian): 49.9 µM | TGI (UO-31 renal): 6.6 µM
